Results on eleven molecules are retold here after patent US10875855B2 (priority 2011, dated 2020).

The test system of test [1] is influenza A virus (A/PR/8/34). The test is described as follows: MDCK cytopathic effect (CPE) cell protection assay, ATP detection. Format: cell-based. The settings on record: Influenza A virus, PR/8, MDCK, 72 h, Table 1; MDCK cells, A/PR/8/34, 72 hours, 50% cell protection, mean all; class symbol; read-out: MDCK IC50.
Test [2] relates to influenza A virus (A/PR/8/34). Kind of test: microbe, parasite or virus in culture. The settings on record: Influenza A virus, PR/8, Table 1, mean all, class symbol; for EC99: read-out: bDNA EC99; for EC50: viral RNA 50% of control wells, read-out: bDNA EC50. Format: cell-based.

For `CCOC(=O)CC[C@@H](Nc1nc(-c2c[nH]c3ncc(F)cc23)ncc1F)C(C)(C)C` [Compound 23, (R)-ethyl 4-((5-fluoro-2-(5-fluoro-1H-pyrrolo[2,3-b]pyridin-3-yl)pyrimidin-4-yl)amino)-5,5-dimethylhexanoate], the IC50 in test [1] lay within 300 to 3300 nM. Besides, in test [2], the concentration for an effect of 99% (EC99) is over 3.3 µM and the EC50 was in the range of 300 to 3300 nM.
`CC(C)(C)[C@@H](CO)Nc1nc(-c2c[nH]c3ncc(F)cc23)c(C#N)cc1F` [Compound 24, (S)-5-fluoro-2-(5-fluoro-1H-pyrrolo[2,3-b]pyridin-3-yl)-6-((1-hydroxy-3,3-dimethylbutan-2-yl)amino)nicotinonitrile]: in test [1], the IC50 was under 300 nM. Besides, in test [2], the 99% effect concentration (EC99) is under 0.3 µM and the EC50 is under 300 nM.
As for `CC(C)(C)[C@@H](CS(=O)(=O)O)Nc1nc(-c2c[nH]c3ncc(F)cc23)c(C#N)cc1F` [Compound 25, (S)-2-(5-cyano-3-fluoro-6-(5-fluoro-1H-pyrrolo[2,3-b]pyridin-3-yl)pyridin-2-ylamino)-3,3-dimethylbutane-1-sulfonic acid], in test [1], the IC50 was under 300 nM. Moreover, in test [2], the 99% effect concentration (EC99) is under 0.3 µM and the 50% effective concentration (EC50) was under 300 nM.
Regarding `CC(C)(C)[C@@H](CO)Nc1nc(-c2c[nH]c3ncc(F)cc23)ncc1F` [Compound 32, (S)-2-(5-fluoro-2-(5-fluoro-1H-pyrrolo[2,3-b]pyridin-3-yl)pyrimidin-4-ylamino)-3,3-dimethylbutane-1-ol], the half-maximal inhibitory concentration (IC50) in test [1] is under 300 nM. In test [2], the 99% effect concentration (EC99) was under 0.3 µM and the concentration giving a half-maximal response (EC50) was under 300 nM.
Consider `CCNS(=O)(=O)C[C@@H](Nc1nc(-c2c[nH]c3ncc(F)cc23)ncc1F)C(C)(C)C` [Compound 33, (S)—N-Ethyl-2-(5-fluoro-2-(5-fluoro-1H-pyrrolo[2,3-b]pyridin-3-yl)pyrimidin-4-ylamino)-3,3-dimethylbutane-1-sulfonamide], for which the concentration for half-maximal inhibition (IC50) in test [1] is under 300 nM. In test [2], the concentration for an effect of 99% (EC99) is under 0.3 µM and the EC50 is under 300 nM.
For the molecule `CCCNS(=O)(=O)C[C@@H](Nc1nc(-c2c[nH]c3ncc(F)cc23)ncc1F)C(C)(C)C` [Compound 34, (S)-2-(5-Fluoro-2-(5-fluoro-1H-pyrrolo[2,3-b]pyridin-3-yl)pyrimidin-4-ylamino)-3,3-dimethyl-N-propylbutane-1-sulfonamide], the IC50 in test [1] was under 300 nM. In test [2], the concentration for an effect of 99% (EC99) lay in the range of 0.3 to 3.3 µM and the EC50 was under 300 nM.
For `COCCNS(=O)(=O)C[C@@H](Nc1nc(-c2c[nH]c3ncc(F)cc23)ncc1F)C(C)(C)C` [Compound 35, (S)-2-(5-Fluoro-2-(5-fluoro-1H-pyrrolo[2,3-b]pyridin-3-yl)pyrimidin-4-ylamino)-N-(2-methoxyethyl)-3,3-dimethylbutane-1-sulfonamide], in test [1], the 50% inhibitory concentration (IC50) was under 300 nM. For the same molecule, in test [2], the concentration for an effect of 99% (EC99) fell in the range of 0.3 to 3.3 µM and the EC50 was under 300 nM.
With `CNS(=O)(=O)C[C@H](Nc1nc(-c2c[nH]c3ncc(F)cc23)ncc1F)C(C)(C)C` [Compound 38, (R)-2-((5-fluoro-2-(5-fluoro-1H-pyrrolo[2,3-b]pyridin-3-yl)pyrimidin-4-yl)amino)-N,3,3-trimethylbutane-1-sulfonamide], in test [1], the IC50 is over 3300 nM. For the same molecule, in test [2], the concentration for an effect of 99% (EC99) was over 3.3 µM and the half-maximal effective concentration (EC50) is over 3300 nM.
`CC(C)NS(=O)(=O)C[C@@H](Nc1nc(-c2c[nH]c3ncc(F)cc23)ncc1F)C(C)(C)C` [Compound 39]: the IC50 in test [1] was under 300 nM. In test [2], the EC99 was in the range of 0.3 to 3.3 µM and the 50% effective concentration (EC50) is under 300 nM.
As to `CC(C)(C)NS(=O)(=O)C[C@@H](Nc1nc(-c2c[nH]c3ncc(F)cc23)ncc1F)C(C)(C)C` [Compound 40], the IC50 in test [1] was under 300 nM. In addition, in test [2], the EC99 was in the range of 0.3 to 3.3 µM and the concentration for a half-maximal effect (EC50) was under 300 nM.
As for `CC1([C@@H](CC(=O)O)Nc2nc(-c3c[nH]c4ncc(F)cc34)c(C#N)cc2F)CCCC1` [Compound 42, (R)-3-(5-cyano-3-fluoro-6-(5-fluoro-1H-pyrrolo[2,3-b]pyridin-3-yl)pyridin-2-ylamino)-3-(1-methylcyclopentyl)propanoic acid], in test [1], the half-maximal inhibitory concentration (IC50) was under 300 nM. Besides, in test [2], the concentration for an effect of 99% (EC99) was under 0.3 µM and the EC50 was under 300 nM.
